# Measured values as given in US8685369B2, “Technetium- and rhenium-bis (heteroaryl) complexes, and methods of use thereof” (priority 2004, dated 2014).
# Assay type: physicochemical
# Method: The stability and robustness of the technetium-di(pyridine) complexes was assessed using challenges with free cysteine and histidine. Specifically, the experiments were performed using [^99mTc(CO)3(dipyridinemethylamine)]^+1.
# [^99mTc(CO)3(H2O)3]^+ was heated with [{N,N-di(pyridyl-2-methyl)}N-butyl-phthalimide in 0.5 mL (1 mg/mL) of methanol at 100° C. for 60 minutes. […] The product eluted with methanol at 20.8 minutes. The HPLC analysis was performed using a Supelco C18 column, 25 cm×4.6 mm column (5 μm pore size), equipped with 2 cm guard using solvent A=0.05 M triethylammonium phosphate buffer pH 2.5 and solvent B=methanol. The method employed was a gradient 5-95% B, 1 mL/minute for 30 minutes. The gradient ramped from 5-95 from 3-20 minutes.
substance,measurement,setting,value
[^99mTc(CO)3(dipyridinemethylamine)]^+1,stability in challenges with free cysteine and histidine,,stable
same,change in the components by HPLC on incubation with cysteine,"aqueous solution, cysteine, 18 hours at 37° C. at pH 7.4",no significant change
